Measurements published in patent US9493426B2, “Quinazolinone derivatives useful as FGFR kinase modulators” (priority 2013, dated 2016).

Legend:
FGFR3 = target: T1, FGFR3 (Homo sapiens, UniProt P22607); assay: Enzyme binding assay (KINOMEscan) FGFR3; details: pKd = -log Kd (M), read-out: FGFR3_pKd (converted)
T1 construct: purchased DiscoveRx Corporation
Description: (§1) Enzyme Binding Assays (KINOMEscan®)
(§2) Kinase enzyme binding affinities of compounds disclosed herein were determined using the KINOMEscan® technology performed by DiscoveRx Corporation, San Diego, Calif., USA (www.kinomescan.com).

FGFR1 = target: T2, FGFR1 (Homo sapiens, UniProt P11362); assay: Enzyme binding assay (KINOMEscan) FGFR1; details: FGFR1_pKd, pKd = -log Kd (M)
T2 construct: purchased DiscoveRx Corporation
Description: as §1, §2

FGFR2 = target: T3, FGFR2 (Homo sapiens, UniProt P21802); assay: Enzyme binding assay (KINOMEscan) FGFR2; details: pKd = -log Kd (M), read-out: FGFR2_pKd (converted)
T3 construct: purchased DiscoveRx Corporation
Description: as §1, §2

VEGFR2 = target: T4, VEGFR2 (Homo sapiens, UniProt P35968); assay: Enzyme binding assay (KINOMEscan) VEGFR2; details: pKd = -log Kd (M), read-out: VEGFR2_pKd (converted)
T4 construct: purchased DiscoveRx Corporation
Description: as §1, §2

FGFR4 = target: T5, FGFR4 (Homo sapiens, UniProt P22455); assay: Enzyme binding assay (KINOMEscan) FGFR4; details: pKd = -log Kd (M), read-out: FGFR4_pKd (converted)
T5 construct: purchased DiscoveRx Corporation
Description: as §1, §2

T1 sequence (P22607 23-806): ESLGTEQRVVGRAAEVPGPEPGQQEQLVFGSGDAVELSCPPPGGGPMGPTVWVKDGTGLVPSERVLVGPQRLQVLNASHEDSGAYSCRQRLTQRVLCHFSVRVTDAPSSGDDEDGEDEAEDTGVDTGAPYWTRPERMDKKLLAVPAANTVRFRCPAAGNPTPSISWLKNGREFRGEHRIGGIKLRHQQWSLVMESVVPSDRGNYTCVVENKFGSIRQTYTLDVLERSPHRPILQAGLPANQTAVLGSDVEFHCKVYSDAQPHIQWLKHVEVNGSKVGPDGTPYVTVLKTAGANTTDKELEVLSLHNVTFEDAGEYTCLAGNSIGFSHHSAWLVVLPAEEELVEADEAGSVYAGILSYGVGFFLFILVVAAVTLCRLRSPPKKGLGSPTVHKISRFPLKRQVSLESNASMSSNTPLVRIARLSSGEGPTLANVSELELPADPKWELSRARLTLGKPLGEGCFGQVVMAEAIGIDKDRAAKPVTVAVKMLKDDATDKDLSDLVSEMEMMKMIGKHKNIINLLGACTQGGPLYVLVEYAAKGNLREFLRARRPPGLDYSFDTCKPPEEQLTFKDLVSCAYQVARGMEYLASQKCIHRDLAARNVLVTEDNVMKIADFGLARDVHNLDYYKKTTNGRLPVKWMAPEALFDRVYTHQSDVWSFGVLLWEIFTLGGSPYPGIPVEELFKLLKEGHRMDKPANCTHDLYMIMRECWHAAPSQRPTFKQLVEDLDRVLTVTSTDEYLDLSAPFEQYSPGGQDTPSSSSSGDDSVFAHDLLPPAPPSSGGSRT
T4 sequence (P35968 20-1356): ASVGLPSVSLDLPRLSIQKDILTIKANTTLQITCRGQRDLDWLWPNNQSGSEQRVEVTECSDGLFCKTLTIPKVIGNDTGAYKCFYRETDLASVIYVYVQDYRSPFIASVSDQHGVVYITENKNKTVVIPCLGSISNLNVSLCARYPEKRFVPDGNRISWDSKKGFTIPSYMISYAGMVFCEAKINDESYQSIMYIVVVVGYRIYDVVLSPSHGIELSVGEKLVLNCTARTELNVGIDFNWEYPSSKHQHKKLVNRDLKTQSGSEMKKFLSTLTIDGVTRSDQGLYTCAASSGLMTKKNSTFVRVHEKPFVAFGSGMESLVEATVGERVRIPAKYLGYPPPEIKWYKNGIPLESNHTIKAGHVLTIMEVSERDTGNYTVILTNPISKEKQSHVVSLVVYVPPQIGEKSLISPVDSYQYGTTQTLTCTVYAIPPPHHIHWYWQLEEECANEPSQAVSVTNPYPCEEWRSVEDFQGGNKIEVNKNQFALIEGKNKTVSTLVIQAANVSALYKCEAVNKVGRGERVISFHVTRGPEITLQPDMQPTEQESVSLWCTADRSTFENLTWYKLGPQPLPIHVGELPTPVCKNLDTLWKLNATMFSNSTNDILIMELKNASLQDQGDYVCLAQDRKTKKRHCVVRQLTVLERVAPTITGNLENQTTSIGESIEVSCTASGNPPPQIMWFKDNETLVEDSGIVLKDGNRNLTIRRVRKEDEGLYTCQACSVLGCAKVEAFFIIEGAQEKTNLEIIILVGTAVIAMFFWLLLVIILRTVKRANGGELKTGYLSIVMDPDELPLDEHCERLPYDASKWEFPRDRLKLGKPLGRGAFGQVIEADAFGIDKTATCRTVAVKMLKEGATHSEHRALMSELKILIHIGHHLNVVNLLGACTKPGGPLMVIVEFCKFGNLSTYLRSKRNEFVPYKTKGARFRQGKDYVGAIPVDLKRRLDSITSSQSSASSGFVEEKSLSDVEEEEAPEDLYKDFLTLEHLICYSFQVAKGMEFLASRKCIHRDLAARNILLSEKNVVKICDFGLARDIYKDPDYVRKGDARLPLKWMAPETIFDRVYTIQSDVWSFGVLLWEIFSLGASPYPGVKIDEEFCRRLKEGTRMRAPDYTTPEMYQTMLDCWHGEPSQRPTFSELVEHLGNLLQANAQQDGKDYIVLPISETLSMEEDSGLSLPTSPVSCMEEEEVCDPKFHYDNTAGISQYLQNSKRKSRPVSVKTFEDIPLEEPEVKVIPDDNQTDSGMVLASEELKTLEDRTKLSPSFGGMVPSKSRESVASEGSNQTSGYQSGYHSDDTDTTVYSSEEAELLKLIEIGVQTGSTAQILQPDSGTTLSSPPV
T3 sequence (P21802 22-821): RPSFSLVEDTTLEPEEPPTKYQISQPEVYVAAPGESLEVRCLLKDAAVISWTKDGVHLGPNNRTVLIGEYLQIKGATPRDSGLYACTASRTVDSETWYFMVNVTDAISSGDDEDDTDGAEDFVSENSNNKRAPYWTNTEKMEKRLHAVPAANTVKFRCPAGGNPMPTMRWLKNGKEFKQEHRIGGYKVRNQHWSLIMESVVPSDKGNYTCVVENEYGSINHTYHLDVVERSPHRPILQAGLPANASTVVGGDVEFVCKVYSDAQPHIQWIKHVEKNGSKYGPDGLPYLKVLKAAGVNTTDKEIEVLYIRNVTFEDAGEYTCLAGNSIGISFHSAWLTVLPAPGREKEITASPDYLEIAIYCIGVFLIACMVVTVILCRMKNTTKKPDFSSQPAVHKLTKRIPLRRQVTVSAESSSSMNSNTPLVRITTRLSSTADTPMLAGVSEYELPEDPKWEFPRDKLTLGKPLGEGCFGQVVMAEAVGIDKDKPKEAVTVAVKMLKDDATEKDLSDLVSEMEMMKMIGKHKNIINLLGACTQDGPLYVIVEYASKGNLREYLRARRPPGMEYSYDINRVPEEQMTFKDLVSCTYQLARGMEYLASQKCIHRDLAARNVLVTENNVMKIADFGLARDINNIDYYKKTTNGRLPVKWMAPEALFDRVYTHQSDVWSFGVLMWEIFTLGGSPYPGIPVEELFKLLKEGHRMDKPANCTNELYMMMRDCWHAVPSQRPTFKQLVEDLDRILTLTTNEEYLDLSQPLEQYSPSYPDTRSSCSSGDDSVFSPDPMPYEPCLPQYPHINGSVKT
T2 sequence (P11362 22-822): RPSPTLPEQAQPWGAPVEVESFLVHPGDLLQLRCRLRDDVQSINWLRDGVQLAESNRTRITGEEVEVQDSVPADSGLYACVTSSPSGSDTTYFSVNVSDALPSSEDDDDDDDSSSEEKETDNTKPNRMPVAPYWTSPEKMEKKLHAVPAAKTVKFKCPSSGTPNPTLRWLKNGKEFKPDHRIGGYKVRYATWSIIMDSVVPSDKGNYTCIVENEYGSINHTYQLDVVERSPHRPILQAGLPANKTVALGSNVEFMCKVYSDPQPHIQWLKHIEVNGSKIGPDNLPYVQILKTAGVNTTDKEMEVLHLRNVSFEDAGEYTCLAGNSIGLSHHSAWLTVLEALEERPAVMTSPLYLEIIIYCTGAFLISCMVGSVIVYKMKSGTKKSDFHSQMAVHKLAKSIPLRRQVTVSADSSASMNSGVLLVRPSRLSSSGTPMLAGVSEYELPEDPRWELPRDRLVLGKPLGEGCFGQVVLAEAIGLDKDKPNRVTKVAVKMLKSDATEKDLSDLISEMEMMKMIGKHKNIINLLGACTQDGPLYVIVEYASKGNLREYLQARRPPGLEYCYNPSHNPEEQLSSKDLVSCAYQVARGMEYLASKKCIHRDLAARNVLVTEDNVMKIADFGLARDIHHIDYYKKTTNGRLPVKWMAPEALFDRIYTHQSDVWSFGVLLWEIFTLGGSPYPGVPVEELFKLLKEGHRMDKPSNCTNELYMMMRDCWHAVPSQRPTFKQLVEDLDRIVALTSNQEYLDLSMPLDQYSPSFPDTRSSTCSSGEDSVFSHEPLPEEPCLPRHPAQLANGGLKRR
T5 sequence (P22455 22-802): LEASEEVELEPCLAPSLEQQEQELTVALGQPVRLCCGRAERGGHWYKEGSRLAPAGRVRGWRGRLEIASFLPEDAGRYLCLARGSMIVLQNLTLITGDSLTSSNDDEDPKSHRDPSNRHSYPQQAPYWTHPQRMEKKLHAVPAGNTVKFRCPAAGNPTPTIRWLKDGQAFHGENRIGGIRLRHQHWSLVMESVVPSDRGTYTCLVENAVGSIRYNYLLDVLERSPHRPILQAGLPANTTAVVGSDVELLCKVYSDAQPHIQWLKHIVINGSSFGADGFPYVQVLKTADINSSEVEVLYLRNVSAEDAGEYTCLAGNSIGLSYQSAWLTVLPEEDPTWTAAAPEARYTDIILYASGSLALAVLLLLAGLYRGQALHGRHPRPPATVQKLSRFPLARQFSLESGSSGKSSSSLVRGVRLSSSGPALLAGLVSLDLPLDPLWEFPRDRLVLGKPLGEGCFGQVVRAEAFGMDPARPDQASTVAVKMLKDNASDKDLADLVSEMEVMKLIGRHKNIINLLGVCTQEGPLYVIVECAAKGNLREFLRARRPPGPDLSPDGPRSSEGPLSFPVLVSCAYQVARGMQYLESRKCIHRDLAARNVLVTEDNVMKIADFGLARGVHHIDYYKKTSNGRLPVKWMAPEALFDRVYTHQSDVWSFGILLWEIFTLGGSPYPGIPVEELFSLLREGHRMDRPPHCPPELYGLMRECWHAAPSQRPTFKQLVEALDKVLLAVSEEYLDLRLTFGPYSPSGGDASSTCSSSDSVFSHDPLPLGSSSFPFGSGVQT

SMILES | melting point [°C] | Kd (FGFR3) [M] | Kd (FGFR1) [M] | Kd (FGFR2) [M] | Kd (VEGFR2) [M] | Kd (FGFR4) [M]
COc1cc(OC)c(F)c(N(Cc2nccn2S(=O)(=O)N(C)C)c2ccc3ncn(C4CCN(C(=O)OC(C)(C)C)CC4)c(=O)c3c2)c1F | 168 |  |  |  |  | 
COc1cc(OC)c(F)c(N(CCCNC(C)C)c2ccc3ncn(C4CCNCC4)c(=O)c3c2)c1 | 140 |  |  |  |  | 
COc1cc(OC)cc(N(CCCNC(C)C)c2ccc3ncn(C4CCNCC4)c(=O)c3c2)c1 | 255 |  |  |  |  | 
COc1cc(OC)c(F)c(N(CCO)c2ccc3ncn(-c4cccnc4)c(=O)c3c2)c1F [Compound 29] | 112 | 6.31e-09 | 1.58e-08 | 3.16e-09 | 6.31e-07 | 5.01e-08
COc1cc(OC)c(F)c(N(CCO)c2ccc3ncn(-c4cccnc4)c(=O)c3c2)c1 [Compound 30] | 186 | 6.31e-08 | 2.51e-07 | 3.98e-08 | > 3.16e-06 | 5.01e-07
COc1cc(OC)cc(N(CCO)c2ccc3ncn(-c4cccnc4)c(=O)c3c2)c1 [Compound 31] | 168 |  |  | 5.01e-07 | > 3.16e-06 | > 3.16e-06
COc1cc(OC)c(F)c(N(CCNC(C)C)c2ccc3ncn(-c4cccnc4)c(=O)c3c2)c1 [Compound 33] | 133 | 7.94e-09 | 5.01e-09 | 1.58e-08 | 1.58e-06 | 2.51e-08
COc1cc(OC)cc(N(CCNC(C)C)c2ccc3ncn(-c4cccnc4)c(=O)c3c2)c1 [Compound 34] | 136 | 1.26e-07 | 6.31e-08 | 5.01e-08 | > 3.16e-06 | 6.31e-07
COc1cc(OC)c(F)c(N(Cc2nccn2S(=O)(=O)N(C)C)c2ccc3ncn(-c4cccnc4)c(=O)c3c2)c1F [Compound 35] | 128 | 3.98e-08 | 5.01e-08 | 1.58e-08 | 1.26e-06 | 1.26e-07
COc1cc(OC)c(F)c(N(Cc2nccn2S(=O)(=O)N(C)C)c2ccc3ncn(-c4cccnc4)c(=O)c3c2)c1 [Compound 36] | 108 | 2.51e-07 | 1.58e-07 | 1e-07 | > 3.16e-06 | 1.26e-06
COc1cc(OC)c(F)c(N(CCO)c2ccc3ncn(-c4ccncc4)c(=O)c3c2)c1F [Compound 37] | 198 | 5.01e-09 | 1.58e-08 | 2.51e-09 |  | 5.01e-08
COc1cc(OC)c(F)c(N(CCO)c2ccc3ncn(-c4ccncc4)c(=O)c3c2)c1 [Compound 38] | 209 | 3.16e-08 | 1e-07 | 2e-08 | > 3.16e-06 | 1.58e-07
COc1cc(OC)c(F)c(N(Cc2nccn2S(=O)(=O)N(C)C)c2ccc3ncn(-c4ccncc4)c(=O)c3c2)c1F [Compound 40] | 139 | 6.31e-08 | 3.98e-08 | 3.16e-08 | 1.58e-06 | 2.51e-07
COc1cc(OC)c(F)c(N(Cc2nccn2S(=O)(=O)N(C)C)c2ccc3ncn(-c4ccncc4)c(=O)c3c2)c1 [Compound 41] |  | 1.26e-07 | 1e-07 | 3.16e-08 | > 3.16e-06 | 7.94e-07
COc1cc(OC)c(F)c(N(Cc2ncc[nH]2)c2ccc3ncn(C4CCNCC4)c(=O)c3c2)c1F [Compound 43] | 223 | 2e-08 | 1.58e-08 | 7.94e-09 | > 3.16e-06 | 5.01e-08
COc1cc(OC)cc(N(Cc2ncc[nH]2)c2ccc3ncn(C4CCNCC4)c(=O)c3c2)c1 [Compound 44] | 220 | 3.98e-07 | 3.98e-07 | 1.58e-07 | > 3.16e-06 | > 3.16e-06
COc1cc(OC)c(F)c(N(Cc2ncc[nH]2)c2ccc3ncn(C4CCNCC4)c(=O)c3c2)c1 [Compound 45] | 260 | 7.94e-08 | 7.94e-08 | 3.16e-08 | > 3.16e-06 | 5.01e-07
COc1cc(OC)c(F)c(N(CCO)c2ccc3ncn(C4CCNCC4)c(=O)c3c2)c1F [Compound 46] | 186 | 1e-07 | 1e-07 | 3.98e-08 | > 3.16e-06 | 7.94e-07
COc1cc(OC)cc(N(CCO)c2ccc3ncn(C4CCNCC4)c(=O)c3c2)c1 [Compound 47] | 165 | > 3.16e-06 | > 3.16e-06 | > 3.16e-06 | > 3.16e-06 | > 3.16e-06
COc1cc(OC)c(F)c(N(CCO)c2ccc3ncn(C4CCNCC4)c(=O)c3c2)c1 [Compound 48] | 173 | 7.94e-07 | 1.26e-06 | 6.31e-07 | > 3.16e-06 | > 3.16e-06

SMILES | melting point [°C] | Kd (FGFR3) [M] | Kd (FGFR1) [M] | Kd (FGFR2) [M] | Kd (VEGFR2) [M] | Kd (FGFR4) [M]
COc1cc(OC)cc(/C(=C\C#N)c2ccc3ncn(-c4cnn(C)c4)c(=O)c3c2)c1 [Compound 49] | 217 | 7.94e-07 | 2e-06 | 3.98e-07 | > 3.16e-06 | > 3.16e-06
COc1cc(OC)c(F)c(N(CCCO)c2ccc3ncn(C4CCNCC4)c(=O)c3c2)c1F [Compound 53] | 184 | 6.31e-08 | 5.01e-08 | 3.16e-08 | > 3.16e-06 | 2e-07
COc1cc(OC)c(F)c(N(CCCO)c2ccc3ncn(C4CCNCC4)c(=O)c3c2)c1 [Compound 54] | 167 | 6.31e-07 | 7.94e-07 | 3.16e-07 | > 3.16e-06 | > 3.16e-06
COc1cc(OC)cc(N(CCCO)c2ccc3ncn(C4CCNCC4)c(=O)c3c2)c1 [Compound 55] | 167 | 2.51e-06 | > 3.16e-06 | 2.51e-06 | > 3.16e-06 | > 3.16e-06
CNCCN(c1ccc2ncn(C3CCNCC3)c(=O)c2c1)c1c(F)c(OC)cc(OC)c1F [Compound 57] |  | 6.31e-08 | 3.16e-08 | 3.98e-08 | 2e-06 | 1.58e-07
CNCCN(c1ccc2ncn(C3CCNCC3)c(=O)c2c1)c1cc(OC)cc(OC)c1F [Compound 58] | 176 | 6.31e-07 | 3.16e-07 | 3.98e-07 | > 3.16e-06 | 2e-06
CNCCN(c1cc(OC)cc(OC)c1)c1ccc2ncn(C3CCNCC3)c(=O)c2c1 [Compound 59] | 139 | > 3.16e-06 |  | > 3.16e-06 | > 3.16e-06 | > 3.16e-06
COc1cc(OC)c(F)c(N(CCCNC(C)C)c2ccc3ncn(C4CCNCC4)c(=O)c3c2)c1F [Compound 60] | 126 | 1.26e-08 | 6.31e-09 | 5.01e-09 |  | 3.98e-08
COc1cc(OC)c(F)c(N(CCCNC(C)C)c2ccc3ncn(C4CCNCC4)c(=O)c3c2)c1 [Compound 61′] |  | 6.31e-08 | 5.01e-08 | 2e-08 | > 3.16e-06 | 2e-07
COc1cc(OC)c(F)c(N(CCO)c2ccc3ncn(C4CCOCC4)c(=O)c3c2)c1 [Compound 63] | 191 | 1.26e-07 | 3.98e-07 | 6.31e-08 | > 3.16e-06 | 1.58e-06
COc1cc(OC)cc(N(CCO)c2ccc3ncn(C4CCOCC4)c(=O)c3c2)c1 [Compound 64] | 204 |  | 6.31e-07 | 3.98e-07 | > 3.16e-06 | > 3.16e-06
COc1cc(OC)c(F)c(N(CCCO)c2ccc3ncn(C4CCOCC4)c(=O)c3c2)c1 [Compound 65] | 164 | 7.94e-08 | 2e-07 | 5.01e-08 | > 3.16e-06 | 
COc1cc(OC)cc(N(CCCO)c2ccc3ncn(C4CCOCC4)c(=O)c3c2)c1 [Compound 66] |  | 1.26e-06 | 1.26e-06 | 5.01e-07 | > 3.16e-06 | > 3.16e-06
COc1cc(OC)c(F)c(N(Cc2nccn2S(=O)(=O)N(C)C)c2ccc3ncn(C4CCOCC4)c(=O)c3c2)c1 [Compound 67] | 189 | 7.94e-07 | 3.16e-07 | 2.51e-07 | > 3.16e-06 | > 3.16e-06
COc1cc(OC)cc(N(Cc2nccn2S(=O)(=O)N(C)C)c2ccc3ncn(C4CCOCC4)c(=O)c3c2)c1 [Compound 68] |  | > 3.16e-06 | 1.26e-06 |  | > 3.16e-06 | > 3.16e-06
COc1cc(OC)cc(N(Cc2ncc[nH]2)c2ccc3ncn(C4CCOCC4)c(=O)c3c2)c1 [Compound 69] | 260 | 1.58e-07 | 1.58e-07 | 5.01e-08 | > 3.16e-06 | 
CNCCN(c1ccc2ncn(C3CCOCC3)c(=O)c2c1)c1cc(OC)cc(OC)c1F [Compound 70] | 178 | 7.94e-08 | 3.16e-08 | 3.98e-08 | > 3.16e-06 | 1e-07
COc1cc(OC)c(F)c(N(CCCNC(C)C)c2ccc3ncn(C4CCOCC4)c(=O)c3c2)c1 [Compound 72] |  | 1.58e-08 | 7.94e-09 | 1e-08 | 2.51e-06 | 5.01e-08
COc1cc(OC)cc(N(CCCNC(C)C)c2ccc3ncn(C4CCOCC4)c(=O)c3c2)c1 [Compound 73′] |  | 2e-07 | 1.26e-07 | 6.31e-08 |  | 1.26e-06
